Assay results published in patent publication US5087417A, “Control of senescence in fruits, vegetables and flowers” (University of Waterloo, priority 1986, dated 1992).

Legend:
[1] = system: Microsomes from senescing carnation flowers; assay: Inhibition of ethylene formation in vitro in carnation microsomes; format: biochemical
Method: This Example illustrates the inhibition of ethylene formation in vitro by the glucose ester of ferulic acid.
Microsomes from senescing carnation flowers were treated with varying quantities of the glucose ester of ferulic acid, isolated as described in Example 1, and the production of ethylene was determined as a percentage of the control production of ethylene in the absence of added ferulic acid ester

[2] = system: petals of carnation flowers; assay: In vivo prevention of ethylene formation in carnation petals after incubation with ACC; settings: 1 mM taken up transpirationally
Method: This Example illustrates the use of the glucose ester of ferulic acid for in vivo prevention of ethylene formation in carnations.
The glucose ester of ferulic acid (1 mM), isolated as described in Example 1, was taken up transpirationally into petals of carnation flowers. Ethylene production was determined as a percentage of the ethylene produced by untreated control petals at various times after incubation with ACC.

[3] = system: lipoxygenase (LOX); assay: Lipoxygenase activity, carnation microsomal membranes; format: biochemical
Excerpt: (§1) This Example illustrates the inhibition of lipoxygenase (LOX) activity by the glucose ester of ferulic acid.

[4] = system: lipoxygenase (LOX); assay: Lipoxygenase activity, bean cotyledon membrane and cytosol; format: biochemical
Excerpt: as §1

[5] = Radical scavenging in a chemical system; settings: tests with a chemical system

- inhibition of lipoxygenase activity derived from carnation (in words) ([3]; 40 μM solution): almost complete inhibition
- Lipoxygenase activity (% of control) ([3]; 100 μg membrane protein from Stage IV carnation, 40 μM): 1.8 % of control
- effect against LOX from other plant systems including bean cotyledons (in words) [4]: effective
- Lipoxygenase activity (% of control) ([4]; 10 μg cytosol protein of 9 d bean cotyledon, 50 μM): 48.4 % of control
- Lipoxygenase activity (% of control) ([4]; 10 μg cytosol protein of 9 d bean cotyledon, 100 μM): 35.9 % of control
- Lipoxygenase activity (% of control) ([4]; 60 μg membrane protein of 9 d bean cotyledon, 50 μM): 46.3 % of control
- Lipoxygenase activity (% of control) ([4]; 60 μg membrane protein of 9 d bean cotyledon, 100 μM): 37.8 % of control
- effect on enzyme activity in membrane and cytosol preparations (in words) ([4]; 100 μm concentrations, all experiments): caused an inhibition of enzyme activity
SMILES: COc1cc(/C=C/C(=O)O[C@@H]2O[C@H](CO)[C@@H](O)[C@H](O)[C@H]2O)ccc1O [glucose ester of ferulic acid]
- Ethylene Production ([1]; Control + 10 μM of Additive): 0.518 ± 0.019 n1.100 μg^-1 protein h^-1
- Ethylene Production % Control ([1]; Control + 10 μM of Additive): 53.9%
- Ethylene Production ([1]; Control + 50 μM of Additive): 0.014 ± 0.005 n1.100 μg^-1 protein h^-1
- Ethylene Production % Control ([1]; Control + 50 μM of Additive): 2.0%
- Ethylene Production ([1]; Control + 100 μM of Additive): 0 n1.100 μg^-1 protein h^-1
- Ethylene Production % Control ([1]; Control + 100 μM of Additive): 0%
- ethylene formation (in words) ([1]; concentration of 100 μM): zero
- % Inhibition of ethylene production ([2]; 12 hrs after treatment): 100%
- % Inhibition of ethylene production ([2]; 16 hrs after treatment): 97.3%
- % Inhibition of ethylene production ([2]; 21 hrs after treatment): 90.4%
- % Inhibition of ethylene production ([2]; 26 hrs after treatment): 81.7%
- radical scavenger activity (in words) [5]: shown promise as a full radial scavenger
